Results taken from article PMC6480460, “Derivatives of the β-Crinane Amaryllidaceae Alkaloid Haemanthamine as Multi-Target Directed Ligands for Alzheimer’s Disease” (Molecules, 2019).

Biological target: hAChE (Homo sapiens, UniProt P22303)
Assay: biochemical
Type: biochemical
Conditions: mean ± SEM of three independent measurements, each in triplicate
Method: (§1) The hAChE and hBuChE activities were determined using a modified method of Ellman with acetylthiocholine iodide (ATChI) and butyrylthiocholine iodide (BuTChI) as substrates, respectively.

Chain of hAChE (P22303 32-614): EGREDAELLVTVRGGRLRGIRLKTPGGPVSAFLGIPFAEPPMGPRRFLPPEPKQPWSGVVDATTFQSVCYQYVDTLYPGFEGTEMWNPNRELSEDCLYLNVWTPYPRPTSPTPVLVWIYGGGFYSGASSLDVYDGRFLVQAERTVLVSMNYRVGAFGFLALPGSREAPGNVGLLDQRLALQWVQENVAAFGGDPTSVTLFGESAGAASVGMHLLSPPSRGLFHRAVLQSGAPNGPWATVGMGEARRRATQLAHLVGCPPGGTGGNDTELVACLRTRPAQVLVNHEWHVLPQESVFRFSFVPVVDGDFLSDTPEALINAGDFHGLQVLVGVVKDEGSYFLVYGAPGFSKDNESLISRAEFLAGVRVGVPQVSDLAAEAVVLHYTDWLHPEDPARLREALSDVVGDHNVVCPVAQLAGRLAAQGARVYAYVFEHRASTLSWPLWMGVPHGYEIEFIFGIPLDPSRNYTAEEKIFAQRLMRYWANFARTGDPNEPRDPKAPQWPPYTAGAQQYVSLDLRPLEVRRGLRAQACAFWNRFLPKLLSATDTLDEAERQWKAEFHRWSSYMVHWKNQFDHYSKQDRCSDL

Compound `COc1cccc(C(=O)OC2CN3Cc4cc5c(cc4C24C=CC(OC)CC34)OCO5)c1` (stereo not drawn) [Compound 1k, 11-O-(3-Methoxybenzoyl)haemanthamine] has an IC50 of 180 ± 17 µM.

Same assay, conditions: selectivity index, ratio hBuChE IC50/hAChE IC50

In the case of `COc1cccc(C(=O)OC2CN3Cc4cc5c(cc4C24C=CC(OC)CC34)OCO5)c1` (stereo not drawn) [Compound 1k, 11-O-(3-Methoxybenzoyl)haemanthamine], the “SI for hAChE” value is reported as 0.4.

Biological target: hBuChE (Homo sapiens, UniProt P06276)
Assay: biochemical
Type: biochemical
Conditions: mean ± SEM of three independent measurements, each in triplicate; read-out: hBuChE IC50
Method: as §1

Chain of hBuChE (P06276 29-602): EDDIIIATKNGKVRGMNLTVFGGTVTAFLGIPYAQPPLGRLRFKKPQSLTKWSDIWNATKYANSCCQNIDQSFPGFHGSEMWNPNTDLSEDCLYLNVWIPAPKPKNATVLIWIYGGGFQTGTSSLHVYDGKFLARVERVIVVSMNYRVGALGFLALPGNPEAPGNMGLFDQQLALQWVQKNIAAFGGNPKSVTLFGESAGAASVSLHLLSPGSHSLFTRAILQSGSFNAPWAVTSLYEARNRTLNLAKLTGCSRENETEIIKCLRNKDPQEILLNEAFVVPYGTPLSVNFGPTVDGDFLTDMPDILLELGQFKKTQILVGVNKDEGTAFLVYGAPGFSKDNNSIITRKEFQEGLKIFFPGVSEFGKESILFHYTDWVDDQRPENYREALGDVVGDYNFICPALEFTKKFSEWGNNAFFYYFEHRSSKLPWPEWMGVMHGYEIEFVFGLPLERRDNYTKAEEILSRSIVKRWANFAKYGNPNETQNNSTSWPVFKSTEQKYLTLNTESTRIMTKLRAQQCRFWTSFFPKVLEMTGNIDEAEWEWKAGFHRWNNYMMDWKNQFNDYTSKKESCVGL

Work on `COc1cccc(C(=O)OC2CN3Cc4cc5c(cc4C24C=CC(OC)CC34)OCO5)c1` (stereo not drawn) [Compound 1k, 11-O-(3-Methoxybenzoyl)haemanthamine] yielded an IC50 of 75.5 ± 12.5 µM.

Tested on: not listed separately
Assay: in vitro
Conditions: pig, PAMPA, PAMPA-BBB Permeability (Pe)
Method: The PAMPA assay was performed as previously described.

With `CN(C)CCCN1c2ccccc2Sc2ccccc21` [Promazine, reference compound] the Papp was 8.6 ×10⁻⁶ cm/s.

Tested on: Jurkat (acute T cell leukemia)
Assay: WST-1 cytotoxicity assay, Jurkat
Type: cell-based
Conditions: Homo sapiens, c = 10 μM, 48 h, percent of proliferation of untreated control cells
Source text: (§2) Selected human tumor and non-tumor cell lines {Jurkat (acute T cell leukemia), MOLT-4 (acute lymphoblastic leukemia), A549 (lung carcinoma), HT-29 (colorectal adenocarcinoma), PANC-1 (pancreas epithelioid carcinoma), A2780 (ovarian carcinoma), HeLa (cervix adenocarcinoma), MCF-7 (breast adenocarcinoma), SAOS-2 (osteosarcoma) and MRC-5 (normal lung fibroblasts)} were purchased from either ATCC (Manassas, VA, USA) or Sigma-Aldrich (St. Louis, MO, USA) and cultured according to the provider’s culture method guidelines. […] Cells in the maximum range of either 10 passages for primary cell line (MRC-5), or in the maximum range of 20 passages for cancer cell lines (Jurkat, MOLT-4, A549, HT-29, PANC-1, A2780, HeLa, MCF-7 and SAOS-2) and in an exponential growth phase were used for this study.
(§3) The WST-1 (Roche, Mannheim, Germany) reagent was used to determine the cytostatic effect of the test compounds. WST-1 is designed for the spectrophotometric quantification of cell proliferation, growth, viability and chemosensitivity in cell populations using a 96-well-plate format (Sigma, St. Louis, MO, USA). The principle of WST-1 is based on photometric detection of the reduction of tetrazolium salt to a colored formazan product. The cells were seeded at a previously established optimal density (30,000 Jurkat, 25,000 MOLT-4, 500 A549, 1500 HT-29, 2000 PANC-1, 5000 A2780, 500 HeLa, 1500 MCF-7, 2000 SAOS-2 and 2000 MRC-5 cells/well) in 100 µL of culture medium, and adherent cells were allowed to reattach overnight. Thereafter, the cells were treated with 100 µL of either corresponding alkaloids or doxorubicin stock solutions to obtain the desired concentrations and incubated in 5% CO2 at 37 °C. WST-1 reagent diluted 4-fold with PBS (50 µL) was added 48 h after treatment. Absorbance was measured after 3 h incubation with WST-1 at 440 nm. The measurements were performed in a Tecan Infinite M200 spectrometer (Tecan Group, Männedorf, Switzerland). All experiments were performed at least three times with triplicate measurements at each drug concentration per experiment. The viability was quantified as described previously according to the following formula: (%) viability = (Asample − Ablank)/(Acontrol − Ablank) × 100, where A is the absorbance of the employed WST-1 formazan measured at 440 nm. The viability of the treated cells was normalized to the viability of cells treated with 0.1% DMSO (Sigma-Aldrich) as a vehicle control.

Point of comparison: `COc1cccc(C(=O)OC2CN3Cc4cc5c(cc4C24C=CC(OC)CC34)OCO5)c1` (stereo not drawn) [Compound 1k, 11-O-(3-Methoxybenzoyl)haemanthamine], activity at 10 µM 83 ± 1%. Against it:
- COc1cccc2c1C(=O)c1c(O)c3c(c(O)c1C2=O)C[C@@](O)(C(=O)CO)C[C@@H]3O[C@H]1C[C@H](N)[C@H](O)[C@H](C)O1 [DOX, Doxorubicin, reference compound] — lower, 0%

Tested on: MOLT-4 (acute lymphoblastic leukemia)
Assay: WST-1 cytotoxicity assay, MOLT-4
Type: cell-based
Conditions: Homo sapiens, c = 10 μM, 48 h, percent of proliferation of untreated control cells, read-out: Cell proliferation, MOLT-4
Source text: as §2, §3

Point of comparison: `COc1cccc2c1C(=O)c1c(O)c3c(c(O)c1C2=O)C[C@@](O)(C(=O)CO)C[C@@H]3O[C@H]1C[C@H](N)[C@H](O)[C@H](C)O1` [DOX, Doxorubicin, reference compound], viability at 10 µM 0%. Against it:
- COc1cccc(C(=O)OC2CN3Cc4cc5c(cc4C24C=CC(OC)CC34)OCO5)c1 (stereo not drawn) [Compound 1k, 11-O-(3-Methoxybenzoyl)haemanthamine] — higher, 94 ± 18%

Tested on: A549 (lung carcinoma)
Assay: WST-1 cytotoxicity assay, A549
Type: cell-based
Conditions: Homo sapiens, c = 10 μM, 48 h, percent of proliferation of untreated control cells, read-out: Cell proliferation, A549
Source text: as §2, §3

Point of comparison: `COc1cccc2c1C(=O)c1c(O)c3c(c(O)c1C2=O)C[C@@](O)(C(=O)CO)C[C@@H]3O[C@H]1C[C@H](N)[C@H](O)[C@H](C)O1` [DOX, Doxorubicin, reference compound], activity at 10 µM 66 ± 16%. Against it:
- COc1cccc(C(=O)OC2CN3Cc4cc5c(cc4C24C=CC(OC)CC34)OCO5)c1 (stereo not drawn) [Compound 1k, 11-O-(3-Methoxybenzoyl)haemanthamine] — higher, 102 ± 5%

Tested on: HT-29 (colorectal adenocarcinoma)
Assay: WST-1 cytotoxicity assay, HT-29
Type: cell-based
Conditions: Homo sapiens, c = 10 μM, 48 h, percent of proliferation of untreated control cells, read-out: Cell proliferation, HT-29
Source text: as §2, §3

Point of comparison: `COc1cccc(C(=O)OC2CN3Cc4cc5c(cc4C24C=CC(OC)CC34)OCO5)c1` (stereo not drawn) [Compound 1k, 11-O-(3-Methoxybenzoyl)haemanthamine], activity at 10 µM 93 ± 3%. Against it:
- COc1cccc2c1C(=O)c1c(O)c3c(c(O)c1C2=O)C[C@@](O)(C(=O)CO)C[C@@H]3O[C@H]1C[C@H](N)[C@H](O)[C@H](C)O1 [DOX, Doxorubicin, reference compound] — lower, 77 ± 12%

Tested on: PANC-1 (pancreas epithelioid carcinoma)
Assay: WST-1 cytotoxicity assay, PANC-1
Type: cell-based
Conditions: Homo sapiens, c = 10 μM, 48 h, percent of proliferation of untreated control cells, read-out: Cell proliferation, PANC-1
Source text: as §2, §3

Point of comparison: `COc1cccc(C(=O)OC2CN3Cc4cc5c(cc4C24C=CC(OC)CC34)OCO5)c1` (stereo not drawn) [Compound 1k, 11-O-(3-Methoxybenzoyl)haemanthamine], activity at 10 µM 88 ± 5%. Against it:
- COc1cccc2c1C(=O)c1c(O)c3c(c(O)c1C2=O)C[C@@](O)(C(=O)CO)C[C@@H]3O[C@H]1C[C@H](N)[C@H](O)[C@H](C)O1 [DOX, Doxorubicin, reference compound] — lower, 59 ± 9%

Tested on: A2780 (ovarian carcinoma)
Assay: WST-1 cytotoxicity assay, A2780
Type: cell-based
Conditions: Homo sapiens, c = 10 μM, 48 h, percent of proliferation of untreated control cells, read-out: Cell proliferation, A2780
Source text: as §2, §3

Point of comparison: `COc1cccc2c1C(=O)c1c(O)c3c(c(O)c1C2=O)C[C@@](O)(C(=O)CO)C[C@@H]3O[C@H]1C[C@H](N)[C@H](O)[C@H](C)O1` [DOX, Doxorubicin, reference compound], activity at 10 µM 5 ± 1%. Against it:
- COc1cccc(C(=O)OC2CN3Cc4cc5c(cc4C24C=CC(OC)CC34)OCO5)c1 (stereo not drawn) [Compound 1k, 11-O-(3-Methoxybenzoyl)haemanthamine] — higher, 108 ± 7%

Tested on: HeLa (cervix adenocarcinoma)
Assay: WST-1 cytotoxicity assay, HeLa
Type: cell-based
Conditions: Homo sapiens, c = 10 μM, 48 h, percent of proliferation of untreated control cells, read-out: Cell proliferation, HeLa
Source text: as §2, §3

Point of comparison: `COc1cccc(C(=O)OC2CN3Cc4cc5c(cc4C24C=CC(OC)CC34)OCO5)c1` (stereo not drawn) [Compound 1k, 11-O-(3-Methoxybenzoyl)haemanthamine], activity at 10 µM 84 ± 12%. Against it:
- COc1cccc2c1C(=O)c1c(O)c3c(c(O)c1C2=O)C[C@@](O)(C(=O)CO)C[C@@H]3O[C@H]1C[C@H](N)[C@H](O)[C@H](C)O1 [DOX, Doxorubicin, reference compound] — lower, 7 ± 10%

Tested on: MCF-7 (breast adenocarcinoma)
Assay: WST-1 cytotoxicity assay, MCF-7
Type: cell-based
Conditions: Homo sapiens, MCF7; c = 10 μM, 48 h, percent of proliferation of untreated control cells; read-out: Cell proliferation, MCF-7
Source text: as §2, §3

Point of comparison: `COc1cccc(C(=O)OC2CN3Cc4cc5c(cc4C24C=CC(OC)CC34)OCO5)c1` (stereo not drawn) [Compound 1k, 11-O-(3-Methoxybenzoyl)haemanthamine], activity at 10 µM 100 ± 2%. Against it:
- COc1cccc2c1C(=O)c1c(O)c3c(c(O)c1C2=O)C[C@@](O)(C(=O)CO)C[C@@H]3O[C@H]1C[C@H](N)[C@H](O)[C@H](C)O1 [DOX, Doxorubicin, reference compound] — lower, 41 ± 7%

Tested on: SAOS-2 (osteosarcoma)
Assay: WST-1 cytotoxicity assay, SAOS-2
Type: cell-based
Conditions: Homo sapiens, c = 10 μM, 48 h, percent of proliferation of untreated control cells, read-out: Cell proliferation, SAOS-2
Source text: as §2, §3

Point of comparison: `COc1cccc(C(=O)OC2CN3Cc4cc5c(cc4C24C=CC(OC)CC34)OCO5)c1` (stereo not drawn) [Compound 1k, 11-O-(3-Methoxybenzoyl)haemanthamine], activity at 10 µM 89 ± 15%. Against it:
- COc1cccc2c1C(=O)c1c(O)c3c(c(O)c1C2=O)C[C@@](O)(C(=O)CO)C[C@@H]3O[C@H]1C[C@H](N)[C@H](O)[C@H](C)O1 [DOX, Doxorubicin, reference compound] — within error, 73 ± 8%

Tested on: MRC-5 (normal lung fibroblasts)
Assay: WST-1 cytotoxicity assay, MRC-5
Type: cell-based
Conditions: Homo sapiens, MRC5; c = 10 μM, 48 h, percent of proliferation of untreated control cells; read-out: Cell proliferation, MRC-5
Source text: as §2, §3

Point of comparison: `COc1cccc(C(=O)OC2CN3Cc4cc5c(cc4C24C=CC(OC)CC34)OCO5)c1` (stereo not drawn) [Compound 1k, 11-O-(3-Methoxybenzoyl)haemanthamine], activity at 10 µM 92 ± 1%. Against it:
- COc1cccc2c1C(=O)c1c(O)c3c(c(O)c1C2=O)C[C@@](O)(C(=O)CO)C[C@@H]3O[C@H]1C[C@H](N)[C@H](O)[C@H](C)O1 [DOX, Doxorubicin, reference compound] — lower, 40 ± 4%
